The structures appear in SMILES notation. Like-named read-outs stand apart in the source and are kept apart here.

The record followed here is patent publication US20130109682A1, “CYCLIC ETHER COMPOUNDS USEFUL AS KINASE INHIBITORS” (NOVARTIS AG, priority 2010, published 2013).

Experiment [1] has as its target GSK3β (Homo sapiens, UniProt P49841). In words: GSK3β ATP depletion assay. It counts as biochemical. The following applies: read-out: GSK3b IC50. In a few lines: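 Human GSK3β (5 nM) preincubated 15 min with 10 μM biotinylated phospho-CREB peptide in pH 7.5 Tris buffer (15 mM MgCl2, 1 mM DTT, 0.1% BSA, 2.5% DMSO). Reaction started with 2 μM ATP and run to about 50% ATP depletion. Remaining ATP measured by KinaseGlo luminescence.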

For experiment [2], the system named is KMS11 (human myeloma cell line). In words: Cell proliferation assay (CellTiter-Glo), KMS11. It is filed as cell-based. The following applies: Homo sapiens, KMS-11. In a few lines: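 KMS11 cells in IMDM with 10% FBS and sodium pyruvate, seeded at 2000 cells/well on assay day. Compound added at 2× to equal volume of cells, incubated 3 days at 37° C. Viability read by CellTiter-Glo luminescence; EC50 derived.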
(Cellular ATP, detected with luciferase, serves as a proxy for viable cell number.)

The target of experiment [3] is T1, FLT3D835Y kinase (Homo sapiens, UniProt P36888, D835Y).
T1 sequence (P36888 27-993 D835Y): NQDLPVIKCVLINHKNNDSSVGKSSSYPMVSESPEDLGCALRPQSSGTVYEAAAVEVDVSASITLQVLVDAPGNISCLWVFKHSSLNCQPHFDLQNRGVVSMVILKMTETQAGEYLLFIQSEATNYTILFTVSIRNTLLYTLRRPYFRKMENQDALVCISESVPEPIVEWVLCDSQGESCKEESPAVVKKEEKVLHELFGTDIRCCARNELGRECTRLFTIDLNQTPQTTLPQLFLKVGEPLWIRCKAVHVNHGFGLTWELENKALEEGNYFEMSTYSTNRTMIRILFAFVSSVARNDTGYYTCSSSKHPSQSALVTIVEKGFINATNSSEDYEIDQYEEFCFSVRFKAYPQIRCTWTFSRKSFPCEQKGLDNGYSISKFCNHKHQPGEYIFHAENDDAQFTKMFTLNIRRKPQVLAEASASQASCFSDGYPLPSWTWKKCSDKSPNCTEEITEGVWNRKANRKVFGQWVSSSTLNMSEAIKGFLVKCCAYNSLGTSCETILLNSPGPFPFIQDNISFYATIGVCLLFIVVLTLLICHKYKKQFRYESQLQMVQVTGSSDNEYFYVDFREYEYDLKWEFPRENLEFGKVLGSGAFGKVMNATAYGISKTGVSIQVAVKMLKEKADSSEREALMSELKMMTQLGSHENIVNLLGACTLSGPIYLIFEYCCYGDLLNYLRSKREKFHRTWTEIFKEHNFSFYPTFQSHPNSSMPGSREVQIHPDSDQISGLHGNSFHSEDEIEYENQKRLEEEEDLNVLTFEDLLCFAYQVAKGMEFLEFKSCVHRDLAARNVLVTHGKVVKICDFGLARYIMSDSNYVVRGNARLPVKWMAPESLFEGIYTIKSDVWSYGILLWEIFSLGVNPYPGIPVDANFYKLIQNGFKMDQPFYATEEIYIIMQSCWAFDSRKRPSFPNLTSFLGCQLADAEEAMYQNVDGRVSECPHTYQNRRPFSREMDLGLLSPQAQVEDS
The experiment can be described thus: FLT3D835Y kinase inhibition assay (LanthaScreen TR-FRET). It counts as biochemical. The following applies: read-out: FLT3 IC50. The method, then: FLT3D835Y Kinase Inhibition Assay
LanthaScreen™ is the detection of Time-Resolved Fluorescence Resonance Energy Transfer (TR-FRET) using lanthanide chelates to measure interactions between various binding partners. The application of TR-FRET to assay kinase activity was first described by Mathis (1995). A TR-FRET assay was used to measure FLT3D835Y kinase inhibitory activity. The assay panel was run on a Biomek FX liquid handling workstations. To the assay plates containing […] compound or control solutions, 4.5 μL of buffer A (50 mM TRIS-HCl pH 7.4, 2 mM DTT, 0.02% Tween 20, 0.02 mM Na3VO4, H2O nanpure) including a generic concentration of ATP (2 μM f.c.) was added per well, followed by […] of buffer B (4 uM ATP in Buffer A) including a generic concentration of polyEAY (50 nM f.c.), FLT3D835Y kinase, and divalent cations. Final concentration of kinase and cations were: [FLT3D835Y kinase]=5.7 nM, [Mg]=3 mM, [Mn]=3 mM. After 1 hour of incubation the kinase reactions were stopped by the addition of 4.5 μL of stop solution D (50 mM EDTA, 20 mM TRIS-HCl pH 7.4, 0.04% NP-40) immediately followed by 4.5 μL of buffer A (50 mM TRIS-HCl pH 7.4, 2 mM DTT, 0.02% Tween 20, 0.02 mM Na3VO4, H2O nanpure) including the Tb-labeled P-20 antibody to give a total detection volume of […]. After an incubation time of 45 min in the dark, the plates were transferred into the Pherastar fluorescence reader for counting. The effect of compound on the enzymatic activity was obtained from the linear progress curves and determined from one reading (end point measurement).
(In TR-FRET formats the signal depends on donor and acceptor labels being close together.)

The mark [4] stands for this setting: KMS11 cells, cell proliferation, read-out: KMS11-Luc EC50.

GSK3β, sequence (P49841 whole entry, species assumed): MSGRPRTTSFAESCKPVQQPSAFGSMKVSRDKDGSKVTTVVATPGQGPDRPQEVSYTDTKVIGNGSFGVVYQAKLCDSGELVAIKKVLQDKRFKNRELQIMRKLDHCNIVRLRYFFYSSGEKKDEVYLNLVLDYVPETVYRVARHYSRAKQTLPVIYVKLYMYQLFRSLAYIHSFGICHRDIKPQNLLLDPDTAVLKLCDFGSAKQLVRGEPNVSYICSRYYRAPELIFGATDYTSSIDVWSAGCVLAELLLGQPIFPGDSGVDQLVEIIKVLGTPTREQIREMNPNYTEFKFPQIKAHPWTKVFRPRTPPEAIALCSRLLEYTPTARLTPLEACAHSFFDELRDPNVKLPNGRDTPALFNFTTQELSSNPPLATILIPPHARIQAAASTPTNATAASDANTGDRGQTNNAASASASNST

In general, IC50 refers to the concentration that gives 50% inhibition. The EC50 is the concentration that produces a half-maximal response. In the case of `Nc1cnc(-c2c(F)cccc2F)nc1C(=O)Nc1cnccc1[C@H]1C[C@@H](N)[C@@]2(O)CCC[C@H]2O1` [Example 213, 5-amino-N-(4-((2R,4R,4aS,7aR)-4-amino-4a-hydroxyoctahydrocyclopenta[b]pyran-2-yl)pyridin-3-yl)-2-(2,6-difluorophenyl)pyrimidine-4-carboxamide], the IC50 stood at 558 nM in experiment [1] and 3500 nM in experiment [3]. The molecule further displayed an EC50 in experiment [2] (KMS11-Luc cells) of 2800 nM.

`C[C@H]1O[C@@H](c2ccncc2NC(=O)c2ccc(F)c(-c3c(F)cccc3F)n2)C[C@@H](N)[C@]1(C)O` [Example 219, N-(4-((2R,4R,5S,6R)-4-amino-5-hydroxy-5,6-dimethyltetrahydro-2H-pyran-2-yl)pyridin-3-yl)-6-(2,6-difluorophenyl)-5-fluoropicolinamide]: the figures for the IC50 in experiment [1] (ATP depletion assay) and in experiment [3] were 979 nM and 1700 nM, respectively. Also, in experiment [2] (setting [4]), the EC50 worked out at 420 nM.

Consider `N[C@@H]1C[C@H](c2ccncc2NC(=O)c2ccc(F)c(-c3c(F)cccc3F)n2)O[C@@H]2CCC[C@H]12` [Example 224, N-(4-((2R,4R,4aR,7aR)-4-aminooctahydrocyclopenta[b]pyran-2-yl)pyridin-3-yl)-6-(2,6-difluorophenyl)-5-fluoropicolinamide], for which the values for the IC50 in experiment [1] (ATP depletion assay) and in experiment [3] were 363 nM and 1600 nM, respectively. Also, the EC50 in experiment [2] (setting [4]) amounted to 650 nM.

Turning to `CC(C)(C)[C@@H]1O[C@H](c2ccncc2NC(=O)c2nc(-c3ccccc3)cnc2N)C[C@@H](N)[C@H]1O` [Example 227, 3-amino-N-(4-((2S,4R,5R,6S)-4-amino-6-tert-butyl-5-hydroxytetrahydro-2H-pyran-2-yl)pyridin-3-yl)-6-phenylpyrazine-2-carboxamide], the values for the IC50 in experiment [1] (ATP depletion assay) and in experiment [3] were 6.4 nM and 140 nM, respectively. Besides, the EC50 in experiment [2] (setting [4]) turned out to be 5310 nM.

`C[C@H]1O[C@@H](c2ccncc2NC(=O)c2nc(-c3ccccc3)cnc2N)C[C@@H](N)[C@]1(C)O` [Example 228, 3-amino-N-(4-((2R,4R,5S,6R)-4-amino-5-hydroxy-5,6-dimethyltetrahydro-2H-pyran-2-yl)pyridin-3-yl)-6-phenylpyrazine-2-carboxamide]: the IC50 in experiment [1] (ATP depletion assay) stood at 13 nM; in experiment [3], 2.7 nM. In addition, the EC50 in experiment [2] (setting [4]) was determined as 2060 nM.

For the molecule `C[C@@H]1O[C@H](c2ccncc2NC(=O)c2nc(-c3ccccc3)cnc2N)C[C@H](N)[C@@]1(C)O` [Example 229, 3-amino-N-(4-((2S,4S,5R,6S)-4-amino-5-hydroxy-5,6-dimethyltetrahydro-2H-pyran-2-yl)pyridin-3-yl)-6-phenylpyrazine-2-carboxamide], the IC50 in experiment [1] (ATP depletion assay) is 39 nM; in experiment [3] it was 93 nM. Moreover, in experiment [2] (setting [4]), the EC50 was 5870 nM.

On to `N[C@H]1C[C@@H](c2ccncc2NC(=O)c2csc(-c3c(F)cccc3F)n2)O[C@H]2CCC[C@H]21` [Example 230, N-(4-((2S,4S,4aS,7aS)-4-aminooctahydrocyclopenta[b]pyran-2-yl)pyridin-3-yl)-2-(2,6-difluorophenyl)thiazole-4-carboxamide], for which the IC50 turned out to be 4580 nM in experiment [1] (ATP depletion assay) and 270 nM in experiment [3]. Further, the EC50 in experiment [2] (setting [4]) was found to be 2990 nM.

As to `Nc1ncc(-c2ccccc2)nc1C(=O)Nc1cnccc1[C@@H]1C[C@H](N)[C@@H]2CCC[C@@H]2O1` [Example 233, 3-amino-N-(4-((2S,4S,4aS,7aS)-4-aminooctahydrocyclopenta[b]pyran-2-yl)pyridin-3-yl)-6-phenylpyrazine-2-carboxamide], the IC50 in experiment [1] (ATP depletion assay) was found to be 330 nM; in experiment [3] it was 160 nM. The EC50 in experiment [2] (setting [4]) is 100 nM.

As to `CC(C)[C@@H]1O[C@H](c2ccncc2NC(=O)c2nc(-c3ccccc3)cnc2N)C[C@H](N)[C@H]1O` [Example 240, 3-amino-N-(4-((2S,4S,5R,6S)-4-amino-5-hydroxy-6-isopropyltetrahydro-2H-pyran-2-yl)pyridin-3-yl)-6-phenylpyrazine-2-carboxamide], the IC50 came out at 270 nM in experiment [1] (ATP depletion assay) and 1200 nM in experiment [3]. The EC50 in experiment [2] (setting [4]) was found to be 380 nM.

As to `CC(C)[C@@H]1C[C@H](N)C[C@H](c2ccncc2NC(=O)c2nc(-c3ccccc3)cnc2N)O1` [Example 291, 3-amino-N-(4-((2R,4S,6S)-4-amino-6-isopropyltetrahydro-2H-pyran-2-yl)pyridin-3-yl)-6-phenylpyrazine-2-carboxamide], the IC50 in experiment [1] (ATP depletion assay) was 4.4 nM; in experiment [3], 5.3 nM. Moreover, the EC50 in experiment [2] (setting [4]) turned out to be 340 nM.

`CC(C)[C@H]1C[C@@H](N)C[C@@H](c2ccncc2NC(=O)c2nc(-c3ccccc3)cnc2N)O1` [Example 292, 3-amino-N-(4-((2S,4R,6R)-4-amino-6-isopropyltetrahydro-2H-pyran-2-yl)pyridin-3-yl)-6-phenylpyrazine-2-carboxamide]: the IC50 amounted to 44 nM in experiment [1] (ATP depletion assay) and 590 nM in experiment [3]. Also, the EC50 in experiment [2] (setting [4]) was determined as 700 nM.

Take `CCC[C@H]1O[C@@H](c2ccncc2NC(=O)c2nc(-c3ccccc3)cnc2N)C[C@@H](O)[C@@H]1O` [Example 340, 3-amino-N-(4-((2R,4R,5S,6R)-4,5-dihydroxy-6-propyltetrahydro-2H-pyran-2-yl)pyridin-3-yl)-6-phenylpyrazine-2-carboxamide]: the figures for the IC50 in experiment [1] (ATP depletion assay) and in experiment [3] were 0.9 nM and 110 nM, respectively. In addition, the EC50 in experiment [2] (setting [4]) was determined as 990 nM.

Take `Nc1ncc(-c2ccccc2)nc1C(=O)Nc1cnccc1[C@H]1C[C@@H](O)[C@H](O)[C@@H](CO)O1` [Example 341, 3-amino-N-(4-((2R,4R,5S,6R)-4,5-dihydroxy-6-(hydroxymethyl)tetrahydro-2H-pyran-2-yl)pyridin-3-yl)-6-phenylpyrazine-2-carboxamide]: the IC50 amounted to 3 nM in experiment [1] (ATP depletion assay) and 120 nM in experiment [3]. In addition, the EC50 in experiment [2] (setting [4]) stood at 10000 nM.

Consider `CC[C@@H]1O[C@H](c2ccncc2NC(=O)c2nc(-c3ccccc3)cnc2N)C[C@H](N)[C@H]1O` [Example 342, 3-amino-N-(4-((2S,4S,5R,6S)-4-amino-6-ethyl-5-hydroxytetrahydro-2H-pyran-2-yl)pyridin-3-yl)-6-phenylpyrazine-2-carboxamide], for which the IC50 amounted to 39 nM in experiment [1] (ATP depletion assay) and 12 nM in experiment [3]. In experiment [2] (setting [4]), the half-maximal effective concentration (EC50) was 770 nM.

As to `CC[C@H]1O[C@@H](c2ccncc2NC(=O)c2nc(-c3ccccc3)cnc2N)C[C@@H](N)[C@@H]1O` [Example 343, 3-amino-N-(4-((2R,4R,5S,6R)-4-amino-6-ethyl-5-hydroxytetrahydro-2H-pyran-2-yl)pyridin-3-yl)-6-phenylpyrazine-2-carboxamide], the figures for the IC50 in experiment [1] (ATP depletion assay) and in experiment [3] were 12 nM and 1.8 nM, respectively. Moreover, in experiment [2] (setting [4]), the EC50 came to 150 nM.
